# Measured values taken from a melting point compilation (Tetko et al.).
row,Compound,melting point
1,CC(=O)c1ccccc1NC(=O)CCCCl,55 to 57 °C
2,Fc1cc2nc(CCl)[nH]c2cc1F,150 to 152 °C
3,NNc1nc2ccccc2[nH]1,80 to 82 °C
4,CCn1c(=O)c(C)nc2cc(C(=O)O)ccc21,204 to 206 °C
5,O=c1[nH]cc(Br)c2sccc12,229 to 231 °C
6,Cn1cc(CCC(=O)O)c2ccccc21,123 to 125 °C
7,Cc1nc(C(=O)O)nn1-c1ccccc1C(C)C,175 to 177 °C
8,Fc1ccccc1Cc1nnc(S)o1,134 to 136 °C
9,Cc1cc(C(=O)O)c(C)n1-c1ccc2c(c1)OCCO2,204 to 206 °C
10,CN1CCCc2ccc(S(=O)(=O)Cl)cc21,64 to 66 °C
11,CC(=O)NCCCCCC(N)=O,112 to 114 °C
12,O=C(O)C1CCc2nnc(C(F)F)n2C1 (stereo not given),215 to 217 °C
13,Cc1nc(C(C)(C)O)n[nH]1,185 to 187 °C
14,Cc1ccc(-n2cc(C(=O)O)c(-c3ccccc3)n2)cc1,194 to 196 °C
15,Nc1nc2c(F)c(F)ccc2s1,49 to 51 °C
16,CCn1cnnc1Nc1ccccc1,125 to 127 °C
17,O=C(O)CSCC(=O)c1ccc(Cl)cc1,81 to 83 °C
18,N#CCCn1cc(C(=O)O)c(-c2cccc3ccccc23)n1,179 to 181 °C
19,COc1ccc(-c2cc(CBr)on2)cc1,88 to 90 °C
20,Nc1cc2c(cc1C(=O)O)OCCO2,189 to 191 °C
21,CCOC(=O)/C(C#N)=C/Nc1ccc(OCC)cc1,115 to 117 °C
22,O=c1[nH]c(CCl)nc2cc(-c3ccc(Cl)cc3)sc12,217 to 219 °C
23,CCc1ccc(-c2csc(N)n2)cc1,120 to 122 °C
24,NC1=NN(c2c(Cl)cc(Cl)cc2Cl)C(=O)C1,218 to 220 °C
25,O=C(CCl)Nc1ccccc1Sc1ccccc1,159 to 161 °C

row,Compound,melting point
1,O=C(O)c1nc(NCc2ccccc2)ncc1Cl,165 to 167 °C
2,CC(=O)Nc1cc(F)c(F)cc1N,162 to 164 °C
3,O=C(O)c1cnc(NC2CC2)s1,217 to 219 °C
4,O=C1Nc2cccc(Br)c2C1=O,229 to 231 °C
5,O=C1COc2ccc(Br)cc21,111 to 113 °C
6,N#Cc1oc2ccccc2c1O,138 to 140 °C
7,O=C(Nc1nncs1)c1ccc(O)cc1,303 to 305 °C
8,COC(=O)C(=O)CC(=O)c1cc(F)ccc1F,145 to 147 °C
9,N#Cc1c(N)sc2c1CCCCC2,103 to 115 °C
10,CCOC(=O)c1c(CBr)oc2ccccc12,84 to 86 °C
11,Cc1nn(C(C)(C)C)c2nc(C3CC3)cc(C(=O)O)c12,172 to 174 °C
12,C=CCN(CC=C)C(=O)c1ccc(N)cc1,104 to 106 °C
13,Cc1ccc(=O)n(CC(=O)O)n1,249 to 251 °C
14,O=C1CC2(CCCCC2)CC(=O)N1,169 to 171 °C
15,NC(=O)NC1(C(=O)O)CCCCC1,179 to 181 °C
16,Cc1cc(-n2c(C)cc(C=O)c2C)no1,75 to 77 °C
17,CCCC(C)NC(=O)C(C)Cl (stereo not given),51 to 53 °C
18,CC(Cc1ccccc1Cl)C(=O)O (stereo not given),56 to 58 °C
19,O=C(O)Cc1cc(=O)n(-c2ccccn2)[nH]1,98 to 100 °C
20,N#Cc1cccnc1OCC(F)(F)F,40 to 42 °C
21,O=C(c1cnc(Cl)c(Cl)c1)N1CCOCC1,78 to 80 °C
22,Cc1[nH]ccc1C(=O)O,167 to 169 °C
23,Cc1nn(-c2ccccn2)c2nc(C3CC3)cc(C(=O)O)c12,237 to 239 °C
24,N#Cc1cnc2ccc(Cl)cc2c1Cl,129 to 131 °C
25,Nc1nc(-c2ccc3ccccc3c2)n[nH]1,205 to 207 °C

row,Compound,melting point
1,O=C(O)c1cc(F)cc(Cl)c1O,210 to 212 °C
2,Nc1cccc(CS(=O)(=O)C2CCCCC2)c1,106 to 108 °C
3,CC(=O)Nc1ccc(OC2CCCCC2O)cc1 (stereo not given),139 to 141 °C
4,Cc1cc(C#N)ccc1NC1CC1,101 to 103 °C
5,CC(C)c1nccn1Cc1cccc(N)c1,88 to 90 °C
6,Nc1nc2c(ccc3ccccc32)s1,134 to 136 °C
7,CC(=O)N1CCN(S(=O)(=O)c2cccc(C(=O)O)c2)CC1,258 to 262 °C
8,O=C(COc1ccccc1C(=O)O)Nc1ccc(Br)cc1,241 to 243 °C
9,CSc1snc(O)c1C#N,230 to 232 °C
10,O=C(O)c1cccc(S(=O)(=O)N2CCc3ccccc32)c1,174 to 176 °C
11,CC1CCC(C(=O)O)C2C(=O)N(c3ccccc3)C(=O)C12 (stereo not given),182 to 184 °C
12,CCc1cccnc1N,38 to 40 °C
13,CN(c1ccc(-c2csc(N)n2)cc1)S(C)(=O)=O,205 to 207 °C
14,COc1ccccc1-c1nnc(N)o1,175 to 177 °C
15,CC(NC(=O)c1ccco1)C(=O)O (stereo not given),100 to 102 °C
16,Cc1noc(NC(=O)CCl)n1,161 to 163 °C
17,OC1C2CCCC1CN(Cc1ccccc1)C2 (stereo not given),88 to 90 °C
18,COC(=O)c1sc(C)c(Br)c1O,95 to 97 °C
19,NCC(O)c1ccc(Cl)s1 (stereo not given),74 to 76 °C
20,Cc1ccccc1C(O)CN (stereo not given),88 to 90 °C
21,O=C(O)c1cc(Br)ccc1I,120 to 122 °C
22,CC(C)(C)c1cc(N)c(C#N)s1,99 to 101 °C
23,Cn1cc(/C=C/[N+](=O)[O-])cn1,127 to 129 °C
24,N#Cc1c[nH]c(C(=O)C(Cl)(Cl)Cl)c1,134 to 136 °C
25,O=C(O)CCSc1ccccc1F,118 to 120 °C

row,Compound,melting point
1,Nc1cccc(-c2nnco2)c1,66 to 68 °C
2,O=C(O)c1cc2c(cc1Cl)N1CCCCCC1=NS2(=O)=O,251 to 253 °C
3,CSc1ccc(NC(=O)C(C)Cl)cc1 (stereo not given),129 to 131 °C
4,N#Cc1ccc(COc2ccccc2F)cc1,68 to 70 °C
5,Nc1ccnc(Oc2ccccc2Cl)c1,121 to 123 °C
6,COc1ccc(C=C2CCCc3c2nc2ccccc2c3C(=O)O)cc1OC,110 to 114 °C
7,O=C(O)CN1CSCC1=O,171 to 173 °C
8,CC(=Cc1ccc(Br)o1)[N+](=O)[O-],89 to 91 °C
9,O=C(O)C(NCc1ccccc1)c1ccc(C(F)(F)F)cc1 (stereo not given),230 to 232 °C
10,COC(=O)c1ccnc(C#N)c1,109 to 111 °C
11,CC(O)c1ccc(NC(=O)c2ccncc2)cc1 (stereo not given),174 to 176 °C
12,O=Cc1ncc(-c2cccc(Br)c2)[nH]1,209 to 211 °C
13,Cc1ccc(-c2cc(C(=O)O)[nH]n2)cc1,251 to 253 °C
14,CC(=O)NC(C(=O)O)C1CCCC1 (stereo not given),172 to 174 °C
15,CS(=O)(=O)NCCBr,44 to 46 °C
16,CC(C)C(=O)NC(C)c1ccc(S(=O)(=O)Cl)s1 (stereo not given),68 to 70 °C
17,Cc1ccc2cc(C(=O)O)[nH]c2c1,209 to 211 °C
18,COc1cc(OC)cc(C(=O)Nc2ccc(O)c(C(=O)O)c2)c1,241 to 243 °C
19,N#Cc1ccc(F)c(Cn2ccnc2)c1,91 to 93 °C
20,NC(C(=O)O)c1ccccc1Br (stereo not given),199 to 201 °C
21,CN(C)c1cc(C#N)c2ccccc2n1,119 to 121 °C
22,CC(C)CNCC(O)c1ccccc1 (stereo not given),61 to 63 °C
23,Nc1ccc2oc(C(F)(F)F)nc2c1,120 to 122 °C
24,COc1ccc(OC)c2[nH]c(C(=O)O)cc12,201 to 203 °C
25,O=C(O)CSc1ccc2c(c1)CCC2,64 to 66 °C

row,Compound,melting point
1,COc1cc(Cl)c(C)cc1NC(=O)CCl,167 to 169 °C
2,Nc1nncc(-c2ccccc2)n1,235 to 237 °C
3,Cn1cc(C(=O)NN)c2ccccc21,138 to 140 °C
4,O=C(O)c1nn(-c2ccccc2I)cc1O,198 to 200 °C
5,CCOc1ccc(C=C(C(=O)O)c2cccs2)cc1,133 to 135 °C
6,O=C(O)CNC(=O)c1ccc2c(c1)OCO2,158 to 160 °C
7,NC(=O)c1cccc(O)c1,163 to 165 °C
8,O=C1NC(=O)C2(CCC(c3ccccc3)CC2)N1 (stereo not given),250 to 252 °C
9,CNC(=O)c1cccc(N)c1,122 to 124 °C
10,Cc1c(C2CC2)nc2ccc(Br)cc2c1C(=O)O,218 to 220 °C
11,O=C(CCl)NNC(=O)C1CC1,185 to 187 °C
12,Cc1ccc(C(O)CN)cc1 (stereo not given),70 to 72 °C
13,CN(CC(=O)Nc1ccc(F)cc1)C(=O)CCl,159 to 161 °C
14,O=c1oc2ccccc2c(O)c1Cc1c(O)c2ccccc2oc1=O,290 to 292 °C
15,COc1ccc(C(=O)C(C)Br)c(OC)c1 (stereo not given),66 to 68 °C
16,NC(=NO)c1cnn2cccnc12,177 to 179 °C
17,NC(=O)C1CCCN(C(=O)c2cc(Cl)ccc2N)C1 (stereo not given),229 to 231 °C
18,COC(=O)c1cccc(OC)c1O,65 to 68 °C
19,O=Cc1cnc(-c2ccccc2)s1,87 to 89 °C
20,O=C(O)C1CCc2c(Cl)cccc21 (stereo not given),111 to 113 °C
21,CCOC(=O)Nc1ccc(O)cc1,124 to 126 °C
22,COc1ccc(Cl)cc1CO,56 to 61 °C
23,CC(=O)N1CCC(NC(=O)OCC(F)(F)F)CC1,115 to 124 °C
24,O=C(O)c1cc(F)c(O)c(F)c1,160 to 162 °C
25,Nc1cccc(S(=O)(=O)N2CCNC(=O)C2)c1,189 to 191 °C

row,Compound,melting point
1,CC(C)C(Br)C(=O)Nc1cc(Cl)ccc1Cl (stereo not given),126 to 128 °C
2,CCC(C)C(NC1=NS(=O)(=O)c2ccccc21)C(=O)O (stereo not given),203 to 205 °C
3,CC(C)Cn1cnnc1C1CCCN1 (stereo not given),54 to 56 °C
4,Nc1ccc([N+](=O)[O-])cc1Br,99 to 101 °C
5,NC(=O)c1cccc(NCc2ccc(F)cc2)c1,136 to 138 °C
6,CCOc1cc(C(=O)O)c(N)cc1OC,185 to 187 °C
7,COc1ccc(-c2ccc(C#N)c(=O)[nH]2)cc1OC,272 to 274 °C
8,COc1ccc(C(=O)O)cc1S(=O)(=O)Cl,153 to 155 °C
9,CNC(=O)c1cccc(O)c1,108 to 110 °C
10,Cc1nc(Cl)cc(-n2ccnc2)n1,114 to 116 °C
11,NC1(c2cccc(F)c2)CCOCC1,48 to 50 °C
12,O=C1CN(Cc2ccnc(Cl)c2)CCN1,143 to 145 °C
13,CS(=O)(=O)N1CCC(CN)CC1,63 to 65 °C
14,Cc1ccc(C(=O)O)cc1S(=O)(=O)N1CCOCC1,176 to 178 °C
15,Clc1ccc(Cc2nn[nH]n2)cc1Cl,153 to 155 °C
16,CC(C)(C)OC(=O)N1CCOCC1C(=O)O (stereo not given),162 to 164 °C
17,NCc1ccc2c(c1)CCO2,38 to 40 °C
18,COCCNc1ccc(S(C)(=O)=O)cc1N,144 to 146 °C
19,COc1ccc(C)cc1C(=O)CBr,73 to 75 °C
20,Cc1cc(=O)n2nc(N)[nH]c2n1,367 to 369 °C
